From PubChem BioAssay (NCI) come the findings set out here.

The structures appear in SMILES notation.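 Assay format: 96-well plates, 48-hour exposure. GI50 marks 50% less growth. The concentration for full growth arrest is given as TGI.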

Some test systems named below: U251 CNS; HCT-15 colon; KM12 colon; SNB-75 CNS; CAKI-1 renal; M14 melanoma; NCI-H226 lung; SR leukemia; A498 renal; HCT-116 colon.
Experiment in all cases: growth of human tumour cells (NCI), 48 h

Regarding `O=C(NCP(=O)(Oc1ccccc1)Oc1ccccc1)OCc1ccccc1`, the TGI in the assay on U251 CNS, in the assay on HCT-15 colon, in the assay on KM12 colon, in the assay with SNB-75 CNS, in the assay with CAKI-1 renal and with M14 melanoma was above 100 µM throughout. The TGI in the assay on NCI-H226 lung and in the assay on SR leukemia was above 100 µM throughout.

For `CCOS(C)(=O)=O`, the TGI with A498 renal, in the assay with HCT-116 colon, with U251 CNS, in the assay on HCT-15 colon, with KM12 colon and in the assay on CAKI-1 renal was above 100 µM throughout. Further, the TGI in the assay on M14 melanoma and with NCI-H226 lung was above 100 µM in each case.

Consider `C/C(C[n+]1ccccc1)=N\N=C(N)N`, for which the TGI in the assay on A498 renal, in the assay on HCT-116 colon, with U251 CNS, in the assay on HCT-15 colon, in the assay on KM12 colon and with SNB-75 CNS was above 100 µM in each case. Also, the TGI in the assay with CAKI-1 renal, in the assay with M14 melanoma and with NCI-H226 lung was above 100 µM throughout.

`C=C(C(=O)OCC)C(=O)OCC`: the TGI with HCT-116 colon, in the assay with U251 CNS, in the assay on HCT-15 colon, in the assay on KM12 colon, in the assay with SNB-75 CNS and in the assay on CAKI-1 renal was above 100 µM each time. For the same compound, the TGI in the assay on M14 melanoma, with NCI-H226 lung and with SR leukemia was above 100 µM throughout.

`Cc1nc(C)c(C(=O)NNC(=O)C[N+](C)(C)C)cc1C(=O)NNC(=O)C[N+](C)(C)C`: the TGI with A498 renal, in the assay with HCT-116 colon, in the assay with U251 CNS, in the assay with HCT-15 colon, in the assay on KM12 colon and with SNB-75 CNS was above 100 µM throughout. The TGI with CAKI-1 renal, in the assay with M14 melanoma and in the assay on NCI-H226 lung was above 100 µM each time.

In the case of `CCCCCCCCCCCCCCCCNc1cccc2ccccc12`, the TGI with HCT-116 colon, in the assay on U251 CNS, with HCT-15 colon, in the assay with KM12 colon, in the assay on SNB-75 CNS and in the assay on M14 melanoma was above 100 µM throughout. Further, the TGI in the assay with NCI-H226 lung and in the assay on SR leukemia was above 100 µM in each case.

For `CSc1cc(-c2cccs2)sc1-c1cc(SC)c(-c2sc(-c3sc(-c4cccs4)cc3SC)cc2SC)s1`, the TGI in the assay on A498 renal, with HCT-116 colon, in the assay with U251 CNS, with HCT-15 colon, in the assay with KM12 colon and in the assay with CAKI-1 renal was above 100 µM throughout. In the assay on M14 melanoma, this compound yielded a TGI above 100 µM.

Consider `S=C1NC2=C(CSC/C2=C\c2cccc(Br)c2)C(c2cccc(Br)c2)N1` (stereo unspecified), for which the TGI in the assay with A498 renal, in the assay with HCT-116 colon, in the assay with U251 CNS, with HCT-15 colon, in the assay with KM12 colon and in the assay on SNB-75 CNS was above 100 µM throughout. Also, the TGI with CAKI-1 renal, in the assay with M14 melanoma and in the assay on NCI-H226 lung was above 100 µM in each case.

Take `COc1ccc(C2OC(c3ccncc3)=NN2C)cc1F` (stereo unspecified): the TGI in the assay on A498 renal, with HCT-116 colon, with U251 CNS, with HCT-15 colon, in the assay on KM12 colon and in the assay on CAKI-1 renal was above 100 µM throughout. Further, the TGI with M14 melanoma and in the assay with NCI-H226 lung was above 100 µM each time.

For `O=C1C=C/C(=N\N=C(c2ccccc2)c2ccccc2)O1`, the TGI in the assay on HCT-15 colon, in the assay on KM12 colon, in the assay with SNB-75 CNS, in the assay on CAKI-1 renal, in the assay with M14 melanoma and in the assay on SR leukemia was above 10 µM in each case.

`O=C(O)[C@H]1CCCN1CP(=O)(O)CN1CCC[C@@H]1C(=O)O`: the TGI in the assay on HCT-116 colon, in the assay with U251 CNS, in the assay with HCT-15 colon, in the assay with KM12 colon, in the assay on SNB-75 CNS and in the assay on CAKI-1 renal was above 100 µM each time. In the assay on M14 melanoma, this compound came in with a TGI above 100 µM.

With `NC(=O)c1c(NC(=O)c2ccccc2)sc2c1CCC(=O)C2`, the GI50 with A498 renal is 1060 nM; in the assay on U251 CNS it was 955 nM; with HCT-15 colon it was 375 nM; in the assay on KM12 colon, 1360 nM; with SNB-75 CNS, 1230 nM; in the assay on CAKI-1 renal it was 637 nM. The GI50 in the assay with NCI-H226 lung is 2200 nM. In addition, the TGI with A498 renal stood at 17.2 µM; in the assay on U251 CNS, 26.7 µM; in the assay on HCT-15 colon, 1.93 µM; in the assay with KM12 colon, 5.61 µM; in the assay with SNB-75 CNS it was 6.05 µM; in the assay on CAKI-1 renal, 3.95 µM. In the assay on NCI-H226 lung, this compound returned a TGI of 9.1 µM.

As to `C[N+](C)([O-])CCOc1cc2c(c3ccccc13)-c1ccccc1C2=O`, the TGI with A498 renal was 60.5 µM; in the assay on HCT-116 colon, above 68 µM; in the assay with U251 CNS, 25.8 µM; in the assay with HCT-15 colon, above 100 µM; with KM12 colon, 66.5 µM; with SNB-75 CNS, 53.2 µM. Moreover, the TGI is 61.9 µM in the assay on CAKI-1 renal and 78.8 µM with NCI-H226 lung.

`COc1cc2c(cc1OC)C(C(c1ccccc1)c1ccccc1)N(C)CC2` (stereo unspecified): the TGI in the assay with A498 renal was above 100 µM; with HCT-116 colon, above 100 µM; in the assay with U251 CNS, above 100 µM; in the assay with HCT-15 colon it was above 100 µM; in the assay on KM12 colon, above 100 µM; in the assay on SNB-75 CNS it was 99.5 µM. Moreover, the TGI in the assay with CAKI-1 renal and in the assay on NCI-H226 lung was above 100 µM each time.

Regarding `S=c1c2cn[nH]c2nc2scc(-c3ccc(Cl)cc3)n12`, the TGI came out at 27.9 µM in the assay on HCT-116 colon; 25.8 µM in the assay with U251 CNS; 26.1 µM in the assay with HCT-15 colon; 28.8 µM in the assay with KM12 colon; 28.2 µM in the assay with SNB-75 CNS; 24.6 µM with CAKI-1 renal. Further, the TGI was determined as 36.3 µM in the assay with M14 melanoma and 28.9 µM in the assay with SR leukemia.

For `N[C@@H](Cc1ccccc1)C(=O)N1CCC[C@@H]1P(=O)(Oc1ccccc1)Oc1ccccc1`, the TGI with A498 renal, in the assay with HCT-116 colon, in the assay with U251 CNS, in the assay with HCT-15 colon, in the assay with KM12 colon and with SNB-75 CNS was above 100 µM throughout. Also, the TGI with CAKI-1 renal, with M14 melanoma and in the assay on NCI-H226 lung was above 100 µM each time.

`O=P(O)(O)C(N=C(Nc1ccccc1)Nc1ccccc1)P(=O)(O)O`: the TGI in the assay on HCT-116 colon, in the assay on HCT-15 colon, with KM12 colon, in the assay on CAKI-1 renal, with M14 melanoma and in the assay on NCI-H226 lung was above 100 µM in each case.

As for `CCCNc1ncnc2c1ncn2C`, the TGI with A498 renal is 95.1 µM; with HCT-116 colon it was above 100 µM; with U251 CNS it was above 100 µM; with HCT-15 colon, above 100 µM; with KM12 colon it was above 100 µM; in the assay with SNB-75 CNS, above 100 µM. In addition, the TGI in the assay on CAKI-1 renal, with M14 melanoma and in the assay with NCI-H226 lung was above 100 µM each time.

On to `CCNC(=S)NNC(=O)C12CC3CC(CC(C3)C1)C2`, for which the TGI in the assay with A498 renal, in the assay with HCT-116 colon, in the assay on U251 CNS, with HCT-15 colon, with KM12 colon and with SNB-75 CNS was above 100 µM each time. Further, the TGI in the assay with CAKI-1 renal, with M14 melanoma and in the assay with NCI-H226 lung was above 100 µM each time.

As for `CC(C)c1cc2c(c(O)c1O)[C@@]1(C(=O)O)CCCC(C)(C)[C@@H]1CC2`, the TGI was above 100 µM in the assay on HCT-116 colon; 30.3 µM with U251 CNS; above 100 µM with HCT-15 colon; 27 µM in the assay on KM12 colon; 34 µM in the assay with SNB-75 CNS; 51.8 µM with CAKI-1 renal. Also, the TGI came out at 29.4 µM in the assay on NCI-H226 lung and 33.7 µM with SR leukemia.

For the compound `N#CNC(=NCc1ccccc1)N(Cc1ccccc1)Cc1ccccc1`, the TGI with HCT-116 colon is above 31.6 µM; with U251 CNS, above 31.6 µM; with HCT-15 colon, above 31.6 µM; with KM12 colon, above 31.6 µM; in the assay on CAKI-1 renal, 89.6 µM; in the assay with M14 melanoma it was above 31.6 µM. Besides, the TGI with NCI-H226 lung is above 31.6 µM; in the assay on SR leukemia it was above 72.9 µM.

In the case of `O=C(/C=C/c1ccccc1)Oc1ccc(C(=O)/C=C/c2ccccc2)cc1`, the TGI in the assay on HCT-116 colon is 14.6 µM; in the assay on HCT-15 colon it was 17.3 µM; with KM12 colon, 15.9 µM; in the assay with SNB-75 CNS, 19.8 µM; with CAKI-1 renal it was 19.8 µM; in the assay on M14 melanoma it was 23.3 µM. In addition, the figures for the TGI in the assay with NCI-H226 lung and in the assay on SR leukemia were above 100 µM and 6.82 µM, respectively.

Regarding `CC(=NNC(=S)Nc1ccccc1)c1cccc(C(C)=NNC(=S)Nc2ccccc2)n1`, the TGI with A498 renal is above 80.8 µM; with HCT-116 colon, above 100 µM; in the assay with U251 CNS, above 100 µM; in the assay on HCT-15 colon, above 100 µM; with KM12 colon, above 100 µM; in the assay with SNB-75 CNS it was above 100 µM. The TGI was above 22.9 µM in the assay on CAKI-1 renal, 21.2 µM in the assay on M14 melanoma and above 44 µM with NCI-H226 lung.

`CC1=Cc2cccc(C)c2C(=O)C1=O`: the TGI in the assay with A498 renal is 30.9 µM; in the assay with HCT-116 colon, 6.88 µM; in the assay on U251 CNS, 41 µM; in the assay on HCT-15 colon, 16.4 µM; in the assay on KM12 colon it was 19.7 µM; with SNB-75 CNS, 29.9 µM. The TGI was 32.5 µM in the assay on CAKI-1 renal, 9.54 µM in the assay on M14 melanoma and 30.5 µM with NCI-H226 lung.
